Results reported in patent publication US9840532B2, “5′-substituted nucleoside compounds” (Eli Lilly and Company, priority 2015, dated 2017).

Key:
[1] = system: Namalwa (Burkitt's lymphoma) cells; assay: Xenograft tumor model, lymphoma (Namalwa); assay type: in vivo, mouse; conditions: oral gavage
Protocol: (§1) The purpose of this assay is to measure in a mouse model of cancer the reduction in tumor volume in response to test compound administration.
(§2) Grow A375 (melanoma) cells in DMEM/High glucose (HYCLONE™ cat. # SH30022) with 10% HI FBS (GIBCO® cat. #10082-147). Grow Will-2 (DLBCL) cells in RPMI 1640 with L-glutamine and 20% heat inactivated FBS. Grow Namalwa (Burkitt's lymphoma) cells (ATCC) in RPMI 1640 media supplemented with L-glutamine, 25 mM HEPES (GIBCO® 22400-089), 1 mM sodium pyruvate and 7.5% FBS. Grow Molt 4 cells in RPMI 1640 with L-glutamine, 25 mM HEPES [GIBCO 22400-089], 1 mM sodium pyruvate, and 10% FBS. Harvest cells and inject subcutaneously onto the rear flank of nude mice (A375: 5×10^6 cells/animal, mixed 1:1 with MATRIGEL®; Will-2; 1×10^7 cells/animal; Namalwa: 2×10^6 cells/animal; Molt 4: : 5×10^6 cells/animal, mixed 1:1 with MATRIGEL®). When tumors are established (approximately 200 mm^3, 7-21 days after implant), randomize animals, and group them into control and test groups. Formulate the test compound in 1% HEC/0.25% TWEEN®-80/0.05% Antifoam. Administer test compound and vehicles by oral gavage. Determine tumor response by tumor volume measurement (caliper) performed twice a week during the course of treatment and report as the percent inhibition of tumor volume versus the vehicle control group.

MDM4 and SmD1-me2S = assay: Mouse A375 Tumor Xenograft MDM4 and SmD1-me2S Western Blot Assay; assay type: in vivo; conditions: A-375, PO given QD or BID, tumors 4 hr after last dose, 4 days of dosing, read-out: dose achieving 50% effect (ED50)
Protocol: Grow A375 cells in medium (DMEM high glucose/10% Hi FBS) at 37° C. in an incubator (5% CO2) for 18-24 hr. Mix the cells with MATRIGEL® (1:1) and implant the cells (5×10^6/animal) subcutaneously into the rear flank of the mice (female nude mice, Harlan). The implanted tumor cells grow as solid tumors. Measure the tumor volume and body weight twice a week with a caliper. After tumor volume reaches approximately 200-250 mm^3 (about 20 days after implant), randomize the animals, and group them into compound treatment groups. Administer the test compounds (formulated in SWFI with 1% HEC/0.25% TWEEN® 80/0.05% Antifoam) by oral gavage. Test compound doses are in the range of 3 to 100 mg/kg. Sacrifice mice 4 hr after the last dose (4 days of dosing).
Mouse A375 Tumor Xenograft MDM4 and SmD1-me2S Western Blot Assay
For western blotting, homogenize the tumor tissues as performed above in 500 μL of kit XY lysis buffer including protease inhibitor cocktail complete Mini (Roche, cat. #: 11 836 170 001) [this cocktail contains […] Trypsin-Chymotrypsin Inhibitor (Sigma cat. # T9777); 10 μg/mL TPCK (Sigma cat. # T4376); 10 μg/mL Aprotinin (Sigma cat. # A1153); 60 mM Beta-Glycerophosphate disodium salt hydrate (Sigma cat. # G9891); 1% TRITON™ X-100 (Sigma cat. # T9284); 25 mM Tris pH ˜7.5 (INVITROGEN™ cat. #15567-027); 2.5 mM sodium pyrophosphate dibasic (Fluka cat. #71501); 300 mM […] (Mallinckrodt cat. #7581); 2 mM TAME (Sigma cat. # T4626); 15 mM pNPP (pNPP disodium salt hexahydrate, Sigma cat. #P4744); 5 mM benzamidine hydrochloride hydrate (Sigma cat. #B6506); 10 mM sodium fluoride (Sigma cat. #S-7920); 1 mM sodium metavanadate anhydrous (Sigma cat. #59088); […]. 1 mM DTT (Sigma cat. # D9779); 15 mM EDTA pH ˜8.0 (INVITROGEN™ cat. #15575020); 5 mM EGTA pH ˜8.0 (Sigma cat. #E3889); […] (Fisher/Axxora cat. # A350012m001); 0.25 mM Pefa Bloc (Sigma cat. #76307). Spin the protein lysates down at 8,000 rpm for 10 min and transfer supernatants to 1.5 mL tubes for sonication (amplitude 25% yield) for 15 seconds. […]

A375 (melanoma) cells = assay: Xenograft tumor model, melanoma (A375); assay type: in vivo, mouse; conditions: 4-day-on and 3-day-off schedule for 26 days, oral gavage
Protocol: as §1, §2

SMILES	percent inhibition of tumor volume versus vehicle ([1]; 2 mg/kg BID for 14 days) [%]	percent inhibition of tumor volume versus vehicle ([1]; 5 mg/kg QD for 14 days) [%]	ED50 (MDM4 and SmD1-me2S) [mg/kg]	percent inhibition of tumor volume versus vehicle (A375 (melanoma) cells; 10 mg/kg QD) [%]	percent inhibition of tumor volume versus vehicle (A375 (melanoma) cells; 15 mg/kg) [%]
Nc1ncnc2c1ccn2[C@@H]1O[C@H]([C@H](O)c2ccc(Cl)cc2)[C@@H](O)[C@H]1O [Example 1, (2R,3R,4S,5R)-2-(4-Aminopyrrolo[2,3-d]pyrimidin-7-yl)-5-[(R)-(4-chlorophenyl)-hydroxy-methyl]tetrahydrofuran-3,4-diol]	74	61	≤ 30	64	71
Nc1ncnc2c1ccn2[C@@H]1O[C@H]([C@H](O)c2ccccc2)[C@@H](O)[C@H]1O [Example 2, (2R,3R,4S,5R)-2-(4-Aminopyrrolo[2,3-d]pyrimidin-7-yl)-5[(R)-hydroxy(phenyl)methyl]tetrahydrofuran-3,4-diol]	–	–	≤ 30	–	–
C[C@@](O)(c1ccc(Cl)cc1)[C@H]1O[C@@H](n2ccc3c(N)ncnc32)[C@H](O)[C@@H]1O [Example 3, (2R,3R,4S,5S)-2-(4-Aminopyrrolo[2,3-d]pyrimidin-7-yl)-5-[(1R)-1-(4-chlorophenyl)-1-hydroxy-ethyl]tetrahydrofuran-3,4-diol]	–	–	≤ 30	–	–
